# Assay results reported in patent publication US5210193A, “Piperazine derivatives” (American Cyanamid Company, priority 1990, dated 1993).
# Where two headings read alike, the source gives them in different places.
# How the values were obtained:
# [1] = tested on: Streptococcus faecalis VGH 84-65; assay: in vitro antibacterial MIC, agar plate dilution; assay type: cell-based; settings: Enterococcus faecalis, VGH8465, 18 h, 35° C., read-out: MIC
# Outline: (§1)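 Minimal inhibitory concentrations came from agar plate dilution in Mueller-Hinton medium. Each organism was delivered at roughly 10^4 CFU by Steers replicator. Plates were read for visible growth after 18 hours at 35° C, values in mcg/ml.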
# [2] = tested on: Morganella morganii VGH 84-11; assay: in vitro antibacterial MIC, agar plate dilution; assay type: cell-based; settings: VGH8411, 18 hours, 35° C., read-out: MIC
# Outline: as §1
# [3] = tested on: Escherichia coli CMC 84-11; assay: in vitro antibacterial MIC, agar plate dilution; assay type: cell-based; settings: Escherichia coli, CMC8411, 18 h, 35° C., read-out: MIC
# Outline: as §1
# [4] = tested on: Pseudomonas aeruginosa LL-1244; assay: in vitro antibacterial MIC, agar plate dilution; assay type: cell-based; settings: Pseudomonas aeruginosa, LL1244, 18 h, 35° C., read-out: MIC
# Outline: as §1
# [5] = tested on: Klebsiella pneumoniae MOR 84-4; assay: in vitro antibacterial MIC, agar plate dilution; assay type: cell-based; settings: Klebsiella pneumoniae, MOR844, 18 h, 35° C., read-out: MIC
# Outline: as §1
# [6] = tested on: Enterobacter cloacae K 84-10; assay: in vitro antibacterial MIC, agar plate dilution; assay type: cell-based; settings: Enterobacter cloacae, K8410, 18 h, 35° C., read-out: MIC
# Outline: as §1
# [7] = tested on: Enterobacter aerogenes VGH 84-36; assay: in vitro antibacterial MIC, agar plate dilution; assay type: cell-based; settings: Klebsiella aerogenes, VGH8436, 18 hours, 35° C., read-out: MIC
# Outline: as §1
# [8] = tested on: Staphylococcus aureus Smith; assay: in vitro antibacterial MIC, agar plate dilution; assay type: cell-based; settings: 35° C.
# Outline: as §1
# [9] = tested on: Morganella morganii CMC 84-37; assay: in vitro antibacterial MIC, agar plate dilution; assay type: cell-based; settings: Morganella morganii, CMC8437, 18 h, 35° C., read-out: MIC
# Outline: as §1
# [10] = tested on: Staphylococcus aureus ATTC 29213; assay: in vitro antibacterial MIC, agar plate dilution; assay type: cell-based; settings: Staphylococcus aureus, ATTC29213, 18 h, 35° C., read-out: MIC
# Outline: as §1
# [11] = tested on: Staphylococcus epidermidis VGH 84-40; assay: in vitro antibacterial MIC, agar plate dilution; assay type: cell-based; settings: VGH8440, 18 hours, 35° C., read-out: MIC
# Outline: as §1
# [12] = tested on: Enterobacter cloacae VGH 84-37; assay: in vitro antibacterial MIC, agar plate dilution; assay type: cell-based; settings: Enterobacter cloacae, VGH8437, 18 h, 35° C., read-out: MIC
# Outline: as §1
# [13] = tested on: Streptococcus faecalis ATTC 29212; assay: in vitro antibacterial MIC, agar plate dilution; assay type: cell-based; settings: Enterococcus faecalis, ATTC29212, 18 hours, 35° C., read-out: MIC
# Outline: as §1
# [14] = tested on: Staphylococcus aureus VGH 84-46; assay: in vitro antibacterial MIC, agar plate dilution; assay type: cell-based; settings: 35° C.
# Outline: as §1
# [15] = tested on: Staphylococcus epidermidis IO 83-58; assay: in vitro antibacterial MIC, agar plate dilution; assay type: cell-based; settings: IO8358, 18 hours, 35° C., read-out: MIC
# Outline: as §1
# [16] = tested on: Staphylococcus epidermidis CMC 83-135; assay: in vitro antibacterial MIC, agar plate dilution; assay type: cell-based; settings: CMC83135, 18 hours, 35° C., read-out: MIC
# Outline: as §1
# [17] = tested on: Acinetobacter calcoaceticus MOR 84-43; assay: in vitro antibacterial MIC, agar plate dilution; assay type: cell-based; settings: MOR8443, 18 hours, 35° C., read-out: MIC
# Outline: as §1
# [18] = tested on: Staphylococcus aureus VGH 84-45; assay: in vitro antibacterial MIC, agar plate dilution; assay type: cell-based; settings: Staphylococcus aureus, VGH8445, 18 h, 35° C., read-out: MIC
# Outline: as §1
# [19] = tested on: Staphylococcus Spp saprophiticus VGH 84-50; assay: in vitro antibacterial MIC, agar plate dilution; assay type: cell-based; settings: 18 hours, 35° C., read-out: MIC
# Outline: as §1
# [20] = tested on: Serratia marcescens K 84-18; assay: in vitro antibacterial MIC, agar plate dilution; assay type: cell-based; settings: Serratia marcescens, K8418, 18 h, 35° C., read-out: MIC
# Outline: as §1
# [21] = tested on: Pseudomonas aeruginosa VGH 84-4; assay: in vitro antibacterial MIC, agar plate dilution; assay type: cell-based; settings: Pseudomonas aeruginosa, VGH844, 18 h, 35° C., read-out: MIC
# Outline: as §1
# [22] = tested on: Staphylococcus aureus CMC 83-127; assay: in vitro antibacterial MIC, agar plate dilution; assay type: cell-based; settings: Staphylococcus aureus, CMC83127, 18 h, 35° C., read-out: MIC
# Outline: as §1
# [23] = tested on: Staphylococcus aureus CMC 83-128; assay: in vitro antibacterial MIC, agar plate dilution; assay type: cell-based; settings: CMC83128, 18 hours, 35° C., read-out: MIC
# Outline: as §1
# [24] = tested on: Escherichia coli PRNT 311; assay: in vitro antibacterial MIC, agar plate dilution; assay type: cell-based; settings: PRNT311, 18 hours, 35° C., read-out: MIC
# Outline: as §1
# [25] = tested on: Escherichia coli ATCC 25922; assay: in vitro antibacterial MIC, agar plate dilution; assay type: cell-based; settings: Escherichia coli, ATCC25922, 18 h, 35° C., read-out: MIC
# Outline: as §1
# [26] = tested on: Escherichia coli CMC 84-16; assay: in vitro antibacterial MIC, agar plate dilution; assay type: cell-based; settings: Escherichia coli, CMC8416, 18 h, 35° C., read-out: MIC
# Outline: as §1
# [27] = tested on: Serratia marcescens F 0-35; assay: in vitro antibacterial MIC, agar plate dilution; assay type: cell-based; settings: Serratia marcescens, F035, 18 h, 35° C., read-out: MIC
# Outline: as §1
# [28] = tested on: Klebsiella pneumoniae AD; assay: in vitro antibacterial MIC, agar plate dilution; assay type: cell-based; settings: Klebsiella pneumoniae, 18 h, 35° C., read-out: MIC
# Outline: as §1
# [29] = tested on: Escherichia coli NAR 311; assay: in vitro antibacterial MIC, agar plate dilution; assay type: cell-based; settings: NAR311, 18 hours, 35° C., read-out: MIC
# Outline: as §1
# [30] = tested on: Proteus rettgeri CMC 84-41; assay: in vitro antibacterial MIC, agar plate dilution; assay type: cell-based; settings: Providencia rettgeri, CMC8441, 18 h, 35° C., read-out: MIC
# Outline: as §1
# [31] = tested on: Staphylococcus aureus ATCC 25913; assay: in vitro antibacterial MIC, agar plate dilution; assay type: cell-based; settings: ATCC25913, 18 hours, 35° C.
# Outline: as §1
# [32] = tested on: Staphylococcus aureus Smith; assay: in vivo antibacterial activity, survival of infected mice (Table III); design: species or system Charles River CD-1 mice; settings: subcutaneous
# Procedure: Charles River CD-1 mice were infected with either Klebsiella pneumoniae AD or Staphylococcus aureus Smith. A single subcutaneous dose of the test compound was administered 1/2 hour after infection. […] The results appear in Tables II and III, wherein the representative test compounds are identified by the number of their hereinafter described examples.
# [33] = Staphylococcus aureus, 18 h, read-out: MIC
MIC [1],MIC [2],MIC [3],MIC [4],MIC [5],MIC [6],MIC [7],MIC [9],MIC [10],MIC [11],MIC [12],MIC [13],MIC [15],MIC [16],MIC [17],MIC [21],MIC [25],MIC [28],MIC [30],Structure (SMILES),"MIC [8, 33]",also measured
4 µg/mL,0.5 µg/mL,0.06 µg/mL,8 µg/mL,0.12 µg/mL,0.12 µg/mL,0.25 µg/mL,0.12 µg/mL,0.25 µg/mL,0.25 µg/mL,0.5 µg/mL,4 µg/mL,0.25 µg/mL,0.5 µg/mL,0.5 µg/mL,2 µg/mL,0.06 µg/mL,0.12 µg/mL,0.5 µg/mL,"CCn1cc(C(=O)O)c(=O)c2cc(F)c(N3CCNC(CF)C3)c(F)c21 (racemic) [Example 63, (racemic)-N-Ethyl-6,8-difluoro-7-[3-(fluoromethyl)-1-piperazinyl]-1,4-dihydro-4-oxo-3-quinolinecarboxylic acid]",0.25 µg/mL,"MIC ([14]; Staphylococcus aureus, VGH8446, 18 h, read-out: MIC): 0.25 µg/mL; MIC [18]: 0.25 µg/mL; MIC [19]: 0.06 µg/mL; MIC [20]: 0.06 µg/mL; MIC [22]: 0.12 µg/mL; MIC [23]: 0.03 µg/mL; MIC [24]: 0.12 µg/mL; MIC [26]: 0.06 µg/mL; MIC [27]: 0.5 µg/mL; MIC [29]: 1 µg/mL"
4 µg/mL,0.12 µg/mL,0.03 µg/mL,8 µg/mL,0.06 µg/mL,0.06 µg/mL,0.12 µg/mL,0.06 µg/mL,0.25 µg/mL,0.25 µg/mL,0.06 µg/mL,4 µg/mL,0.25 µg/mL,0.25 µg/mL,0.5 µg/mL,2 µg/mL,0.03 µg/mL,0.06 µg/mL,0.25 µg/mL,"CCn1cc(C(=O)O)c(=O)c2cc(F)c(N3CCNC(CF)C3)c(F)c21 (single isomer, unassigned; (-)) [Example 64, (-)-N-Ethy6,8-difluoro-7-[3-(fluoromethyl)-1-piperazinyl]-1,4-dihydro-4-oxo-3-quinolinecarboxylic acid]",,MIC ([8]; 18 hours): 0.12 µg/mL; MIC ([14]; 18 hours): 0.12 µg/mL; MIC [18]: 0.12 µg/mL; MIC [19]: 1 µg/mL; MIC [20]: 0.25 µg/mL; MIC [22]: 0.06 µg/mL; MIC [23]: 0.25 µg/mL; MIC [24]: 0.06 µg/mL; MIC [26]: 0.03 µg/mL; MIC [27]: 0.5 µg/mL; MIC [29]: 1 µg/mL

Structure (SMILES),MIC [1],MIC [2],MIC [3],MIC [4],MIC [5],MIC [6],MIC [7],MIC [9],MIC [10],MIC [11],MIC [12],MIC [13],MIC [15],MIC [16],MIC [17],MIC [21],MIC [25],MIC [28],MIC [30],"MIC [8, 33]",also measured
"CCn1cc(C(=O)O)c(=O)c2cc(F)c(N3CCN(C)C(c4ccc(Br)s4)C3)cc21 (stereo not shown) [Example 14, 7-[3-(5-Bromo-2-thienyl)-4-methyl-1-piperazinyl]-1-ethyl-6-fluoro-1,4-dihydro-4-oxo-3-quinolinecarboxylic acid]",,> 256 µg/mL,> 256 µg/mL,,> 256 µg/mL,,> 256 µg/mL,,,,> 256 µg/mL,,,,,> 256 µg/mL,> 256 µg/mL,256 µg/mL,128 µg/mL,0.25 µg/mL,MIC [31]: 0.5 µg/mL; Survival Ratio 7 Days After Infection ([32]; 0.5 mg/kg single dose): 0/5; Survival Ratio 7 Days After Infection ([32]; 1 mg/kg single dose): 0/5; Survival Ratio 7 Days After Infection ([32]; 2 mg/kg single dose): 0/5; Survival Ratio 7 Days After Infection ([32]; 4 mg/kg single dose): 5/5; Survival Ratio 7 Days After Infection ([32]; 8 mg/kg single dose): 5/5
